# From patent publication US8466172B2, “Stabilization of hypoxia inducible factor (HIF) alpha” (FibroGen, Inc., priority 2001, dated 2013)
# Several values for one entry are separate records, joined by “and”; a condition that tells them apart may be missing. Identical values can stand only once.
# System: Wistar rats, acute myocardial infarction (AMI)
# Experiment: Cardiac ischemia Experiment I, 4-week study after acute myocardial infarction
# Type: in vivo, rat
# Details: for fractional shortening: Treated-MI
# Source text: Seventy adult male Wistar rats (200-250 g) were anaesthetized and subjected to left coronary artery occlusion to produce acute myocardial infarction (AMI). Nine animals were subjected to identical surgery without coronary artery ligation. Twenty-four to forty-eight hours after surgery, electrocardiogram (ECG) electrodes were applied to the paws and a 15 MHz linear probe (Acuson Corp., Mountain View Calif.) was applied to the chest to obtain short axis transthoracic echocardiography (2DE) images at the mid-papillary muscle level. The probe was moved cephalad or caudad and angulated until clear endocardial visualization of the left ventricular cavity was detected. Images were obtained using the Sequoia ultrasound system (Acuson). Animals with less than 20% fractional shortening and regional wall motion abnormality on the 2DE were randomized to treatment with compound A (n=14) or vehicle (n=12). The sham controls were also randomized to treatment with compound A (n=4) or vehicle (n=5).
# Animals were treated by gavage 2 times per day for the duration of the experiment with compound A at 50 mg/kg or with vehicle alone. Serum level of drug was determined periodically to establish that treated animals received sufficient and consistent amount of drug and that the measured levels were sufficient to inhibit prolyl 4-hydroxylase, a representative 2-oxoglutarate dioxygenase.
# Serial 2DE images were obtained weekly. Three short axis 2DE digital clips containing 5 or more systolic and diastolic frames were captured and stored. Two observers blinded to treatment did measurements off-line. For the measurements, the digital images were slowed and frozen at end systole and end diastole. Two systolic and two diastolic frames from each of the three digital clips were measured by consensus and averaged. The anterior wall in systole (AWS) and diastole (AWD), posterior wall in systole (PWS) and diastole (PWD), and left ventricular end systolic (LVESD) and end diastolic (LVEDD) were measured according to the American Society for Echocardiology (ASE) leading-edge method. For consistency, measurements were done from the anterior to the posterior mid points of the left ventricular cavity and were randomly repeated to ensure reproducibility (reproducibility was approximately 96%).
# At four weeks of treatment, in vivo hemodynamic measurements were determined, as described below, both before and after infusion (0.2 ml over 1 minute) of […] isoproterenol via the femoral vein. Hearts were then excised and weighed as described below.
# To collect in vivo hemodynamic measurements, animals were anaesthetized and the right carotid artery was dissected free from surrounding tissues and canulated with an SPR-671 ultra-miniature pressure transducer (Millar Instruments, Inc., Houston Tex.). The catheter was then advanced into the left ventricle. After steady state was established, baseline heart rate (HR), developed pressure (DP), contractile index (CI), left ventricle systolic pressure (SBP) and end diastolic pressure (LVEDP), and maximal rate of pressure rise and fall (+dP/dt and −dP/dt, respectively) were recorded.
# Following hemodynamic measurement, hearts were excised and weighed. Pieces of scarred myocardium, and right ventricle and left ventricle myocardium distant from the site of infarct were dissected out and weighed. Hydroxyproline and proline were determined by the method of Palmerini et al. (1985, J Chromatogr 339:285-92) except that L-azetidine-2-carboxylic acid (Sigma-Aldrich) was substituted for 3,4-dehydroproline as the internal standard.
compound,measurement,setting,value
"O=C(O)c1c[nH]c2c(ccc3cccnc32)c1=O [Compound A, 4-oxo-1,4-dihydro-[1,10]phenanthroline-3-carboxylic acid]",Hydroxyproline/proline in infarct scar,4 weeks post-MI,0.34 ± 0.08
same,Hydroxyproline/proline in non-infarct left ventricular myocardium,4 weeks post-MI,0.12 ± 0.06
same,Hydroxyproline/proline in non-infarct right ventricular myocardium,4 weeks post-MI,0.13 ± 0.02
same,+dP/dt,"4 weeks post-MI, baseline",9477 ± 581 mm Hg/sec
same,Developed pressure,"4 weeks post-MI, baseline",133 ± 6 mm Hg
same,Systolic BP,"4 weeks post-MI, baseline",143 ± 7 mm Hg
same,−dP/dt,"4 weeks post-MI, baseline",9978 ± 827 mm Hg/sec
same,+dP/dt,"4 weeks post-MI, isoproterenol",16830 ± 1195 mm Hg/sec
same,Developed pressure,"4 weeks post-MI, isoproterenol",121 ± 9 mm Hg
same,Systolic BP,"4 weeks post-MI, isoproterenol",130 ± 9 mm Hg
same,−dP/dt,"4 weeks post-MI, isoproterenol",9234 ± 703 mm Hg/sec
same,fractional shortening,week 0 (baseline),10% and 10 ± 0.8%
same,fractional shortening,week 1,17 ± 1%
same,fractional shortening,week 2,20% and 20 ± 2%
same,fractional shortening,week 3,21 ± 2%
same,fractional shortening,week 4,21 ± 3%
same,increase in fractional shortening relative to baseline,week 2,79%
